Experimental data taken from ChEMBL document CHEMBL4184182, “Studies on interactions of carbazole derivatives with DNA, cell image, and cytotoxicity” (Bioorg Med Chem, 2018).
Activity calls are given as the source filed them. The calls are words filed in the database; no cut-off is given here.

Experiments:
[1] = Selectivity ratio of DC50 for 26-mer duplex DNA (unknown origin) to DC50 for human telomeric G-quadruplex DNA in presence of sodium ion
[2] = tested on: Quadruplex DNA; assay: Binding affinity to c-Kit G-quadruplex DNA (unknown origin) assessed as enhanced fluorescence ratio at 5 uM after 5 mins by fluorescence titration assay relative to control; type: nucleic-acid assay
[3] = tested on: HepG2; assay: Induction of morphological changes in human HepG2 cells assessed as cellular clumping at 5 uM after 24 hrs; type: functional, cell-based

| SMILES | Selectivity ratio [1] | Ratio [2] | Activity [3] |
| --- | --- | --- | --- |
| CCn1c2ccccc2c2cc(/C=C(\C#N)c3ccc[n+](C)c3)ccc21.[I-] | 1.33 | > 6 |  |
| CCn1c2ccccc2c2cc(/C=C/c3sc4ccccc4[n+]3CC)ccc21.[I-] |  |  | Active |
